Here are results for three compounds from publication PMC11984268 (BMC Cancer, 2025).

Data set [1] is described as follows: Plasma pharmacokinetics by HPLC-MS/MS. The class given is in vivo, human. The settings on record: for concentration at 24 h: read-out: Cmin 24h. How it is done: Plasma samples were collected pre-dose and 1, 2, 4, 6, 8, 10 and 24 h after the dose on C1/D21. PK trough samples (pre-dose; 2 h post-dose) were obtained on day 21 of cycles 2, 4, 6, 8, 10 and 12.
For data set [2], the system named is pMEK1/2. Kind of data set: pMEK1/2 in paired skin biopsies, Western blotting/densitometry. The class given is in vivo, human. The settings on record: dose escalation, cohort 7, 12 and 13, C1D15. The protocol:
(§1) All patients in the dose escalation phase consented to a fresh frozen punch skin biopsy during screening and on C1/D15 (± 7 days). Fresh frozen skin and tumour biopsies during screening and on C1/D15 (± 7 days) were also required for the first 13 patients in the dose expansion phase. PD markers of MEK1/2 inhibition (pMEK1/2; pERK1/2) in skin biopsies and MET inhibition (pSTAT3) in tumour biopsy were assessed by Western blotting (WB), as previously described. Densitometry on WB images was performed using ImageJ software.

The conditions of data set [3]: in vivo; cited from earlier work.
The procedure of data set [4]:
A rolling-six design was employed.
Safety assessments, ophthalmic/cardiac examinations were performed as previously described. […] Anti-tumour activity was conducted at baseline (within 28 days prior to C1/day 1 (D1)) and then every 2 cycles and evaluated by RECIST v1.1.
Safety and efficacy data were summarised using descriptive statistics. Evaluable patients for toxicity were those patients that received at least one dose of one or both drugs. Evaluable patients for MTD or dose escalation were those patients who completed C1 or withdrew early for experiencing a DLT. Response analyses (RECIST v1.1) were performed on an intention-to-treat basis, and any patient who received any dose of study treatment was evaluable for response. PFS was defined as the time between receiving the first dose of study medication to disease progression or death from any cause. OS was defined as the time between C1D1 to death from any cause. PFS and OS were estimated using the Kaplan–Meier method. Statistical significance was calculated from distinct technical replicates by Student’s t-test (2-tailed, 2 sample equal variance on unpaired data), in GraphPad Prism 8. Graphs were plotted as means with error bars represented as SD; statistical significance was denoted as follows: *** = p < 0.001, ** = p < 0.01, * = p < 0.05, ns = p > 0.05.
This is another data set of the same source.

The test system of data set [5] is cMET. Conditions: cited from earlier work.
The test system of data set [6] is pMET^Y1003. Kind of data set: pMET Y1003 in paired tumour biopsies, Western blotting. The class given is in vivo, human. Conditions: one patient with paired biopsy, dose expansion, C1D15.
In data set [7] the test system is pSTAT3^Y705. Kind of data set: pSTAT3 Y705 in paired tumour biopsies, Western blotting. It is filed as in vivo, human. Conditions: one patient with paired biopsy, dose expansion, C1D15. The protocol:
as §1
In general terms: A western blot detects proteins with antibodies after separation by electrophoresis.

The conditions of data set [8]: patients with advanced solid cancers; cited from earlier work.
The mark [9] stands for this setting: Cycle 1, Day 21, Cohort 7: binimetinib 30mg B.D 28d, crizotinib 200mg B.D, n = 7.
Where [10] appears, read: Cycle 1, Day 21, Cohort 12: binimetinib 30mg B.D 21d, crizotinib 200mg B.D, n = 5.
The mark [11] stands for this setting: Cycle 1, Day 21, Cohort 13: binimetinib 30mg B.D 21d, crizotinib 250mg O.D, n = 6.
The mark [12] stands for this setting: Cycle 1, Day 21, Dose expansion phase: binimetinib 30mg B.D 21d, crizotinib 250mg O.D, n = 26.
[13] abbreviates: human, plasma, dose escalation phase, 3 cohorts, oral, read-out: time of peak plasma concentrations after dosing.

Structures are written as SMILES. Read-outs that look alike come from different tables or passages of the source.

In the case of `O=C(NOCCO)c1cc2[nH]cnc2c(F)c1Nc1ccc(Br)cc1F` [AR0042603], in [1] (setting [9]), the AUC0-10h was 203 (112) ng*h/ml (SD), the Cmax was 25.1 (15.1) ng/ml (SD), the Cmin is listed as 10.4 (2.66) ng/ml (SD) and the Tmax was 3.03 (1.97) h (SD). In data set [1] (setting [10]), the AUC0-10h is listed as 183 (24.8) ng*h/ml (SD), the Cmax is recorded as 29.5 (8.62) ng/ml (SD), the Cmin was 10.2 (2.47) ng/ml (SD) and the Tmax is recorded as 1.75 (0.5) h (SD). Also, in [1] (setting [11]), the AUC0-10h was 121 (28.9) ng*h/ml (SD), the Cmax was 23.4 (8.04) ng/ml (SD), the Cmin was 6.95 (1.6) ng/ml (SD) and the Tmax is given as 1.84 (1.16) h (SD). Also, in [1] (setting [12]), the AUC0-10h is 194 (85.2) ng*h/ml (SD), the Cmax was 22.7 (16.0) ng/ml (SD), the Cmin is recorded as 12.1 (4.8) ng/ml (SD) and the Tmax was 3.15 (1.99) h (SD).
Turning to `Cn1cnc2c(F)c(Nc3ccc(Br)cc3F)c(C(=O)NOCCO)cc21` [binimetinib], the “MTD (binimetinib dose in the combination)” value (days 1–21 every 28 days, with crizotinib 250 mg O.D continuously) is 30 mg B.D. In addition, the “pMEK1/2 (catalytically-inactive) in skin biopsies, post- vs pre-treatment” value in data set [2] is on record as “significant accumulation”. Besides, in data set [1] (setting [9]), the AUC0-10h was 1604 (554) ng*h/ml (SD), the Cmax is 265 (83.4) ng/ml (SD), the Cmin was 77.1 (40.3) ng/ml (SD) and the Tmax is given as 2.26 (2.14) h (SD). Besides, in [1] (setting [10]), the AUC0-10h is reported as 1780 (706) ng*h/ml (SD), the Cmax is 386 (189) ng/ml (SD), the Cmin is given as 85.8 (51.9) ng/ml (SD) and the Tmax is recorded as 1.75 (0.5) h (SD). Also, in data set [1] (setting [11]), the AUC0-10h is on record as 1402 (666) ng*h/ml (SD), the Cmax is recorded as 320 (136) ng/ml (SD), the Cmin was 64.0 (28.9) ng/ml (SD) and the Tmax is reported as 1.51 (0.54) h (SD). Besides, in data set [1] (setting [12]), the AUC0-10h is on record as 2129 (1152) ng*h/ml (SD), the Cmax is given as 357 (171) ng/ml (SD), the Cmin was 103 (58.5) ng/ml (SD) and the Tmax is listed as 2.55 (1.5) h (SD). Further, the Tmax in data set [1] (setting [13]) was 0.98 to 6 h. Moreover, in data set [3], the RP2D is listed as 45 mg B.D and the “doses achieving plasma concentrations required to inhibit pERK1/2” value was at least 30 mg B.D.
For the compound `C[C@@H](Oc1cc(-c2cnn(C3CCNCC3)c2)cnc1N)c1c(Cl)ccc(F)c1Cl` [crizotinib], the “DR-AE determined to be related to the drug” value is reported as 164 in data set [4] (dose escalation phase, of 210 DR-AE) and 244 in data set [4] (dose expansion phase, of 297 DR-AE). Besides, in data set [5], the “pre-clinically predicted effective concentration to inhibit cMET” value is reported as 62 ng/mL. For the same compound, the “pMET Y1003 levels in tumour during treatment” value in data set [6] was “increased”. In addition, in [7], the “pSTAT3 Y705 levels in tumour during treatment” value is listed as “decreases”. For the same compound, the “MTD (crizotinib dose in the combination)” value (continuously, with binimetinib 30 mg B.D days 1–21 every 28 days) is 250 mg O.D. The “maximum-tolerated dose (MTD) of crizotinib with PD- 0325901” value in data set [8] was 200 mg B.D. The AUC0-10h is 2481 (980) ng*h/ml (SD) in [1] (setting [9]), 2119 (1341) ng*h/ml (SD) in data set [1] (setting [10]), 1467 (410) ng*h/ml (SD) in data set [1] (setting [11]) and 1647 (907) ng*h/ml (SD) in data set [1] (setting [12]). The Cmin in [1] (setting [9]) is listed as 205 (78.0) ng/ml (SD); in data set [1] (setting [10]), 181 (136) ng/ml (SD); in [1] (setting [11]) it was 114 (43.1) ng/ml (SD); in [1] (setting [12]), 149 (85.3) ng/ml (SD). The figures for the AUC0-24h in [1] (setting [11]) and in data set [1] (setting [12]) were 2529 (380) ng*h/ml (SD) and 3479 (2083) ng*h/ml (SD), respectively. Besides, the “median trough plasma concentrations” value in [1] (cohort 13, crizotinib 250 mg O.D) is over 62 ng/mL. The concentration at 24 h in data set [1] (human, plasma, oral, Cycle 1, Day 21, Cohort 13: binimetinib 30mg B.D 21d, crizotinib 250mg O.D, n = 6) came to 72.6 ng/mL; in [1] (human, plasma, oral, Cycle 1, Day 21, Dose expansion phase: binimetinib 30mg B.D 21d, crizotinib 250mg O.D, n = 26) it was 109 ng/mL. In addition, the Tmax in data set [1] (setting [13]) was in the range of 0.97 to 6 h.
